Blank lines part the entries; values can stand above or below the substance they belong to. The star is where a group is joined. YPEG 2×20 kDa = Y-shaped PEG of 2×20 kDa; Pent4ynoyl = C#CCCC(=O)*; F5 = not defined here; F6 = not defined here
Legend:
[1] = system: carrageenan induced paw edema; assay: Inflammation imaging, carrageenan induced paw edema; assay type: in vivo, BALB/c female mice; details: 1% carrageenan subcutaneously, fluorescence molecular tomography; FIG. 9
Method: Briefly, BALB/c female mice 6-8 weeks old (Charles River Laboratory, Wilmington, Mass.) were injected subcutaneously with a 1% solution of carrageenan in PBS. After 1 minute post-injection, mice were injected the imaging agent Q91. Imaging was conducted at various time points using a Fluorescence Molecular Tomography system (VisEn Medical, Woburn Mass.).

[2] = system: Cathepsin B, Cathepsin K, Cathepsin L, or Cathepsin S; assay: Enzyme activation profiles of R51 to R59, cathepsins; assay type: biochemical; details: compound 0.5 uM, enzyme 0.05 uM, monitored for 24 hours; FIG. 15
Method: Compounds at a concentration of 0.5 uM were incubated with Cathepsin B, Cathepsin K, Cathepsin L, or Cathepsin S at a concentration of 0.05 uM. The reaction buffers used were as follows: Cathepsin K—50 mM MES, pH 5.0, 2.5 mM EDTA, 2.5 mM DTT; Cathepsin B—25 mM MES, pH 5.0, 1 mM DTT; Cathepsin S—50 mM NaOAc, pH 4.5, 5 mM DTT, 0.25M NaCl; Cathepsin L—50 mM MES, pH 6, 5 mM DTT. The activity was monitored for 24 hours with a Gemini (Molecular Devices) fluorescence plate reader at excitation 663 nm and emission 690 nm with a cut off of […].

[3] = system: atherosclerotic plaque in ApoE -/- knockout mice; assay: Imaging of macrophage activity in atherosclerotic plaque; assay type: in vivo; details: intravenous, 6 hours post-injection
Method: Age-matched C57BL6 wild type female mice (Charles river Laboratories) were fed a normal diet and ApoE −/− knockout female mice (Jackson Laboratories) were fed a high cholesterol diet for 10-20 weeks. The mice were injected intravenously with compounds of formula R51 ([mPEG-20kDa-Suc]-Lys(F6)-Gly-Phe-Leu-Gly-Lys(F6)-[NH2]) (SEQ ID NO:435) and R55 ([mPEG-20kDa-Suc]-Lys(F6)-Arg-Arg-Lys(F6)-[NH2]) (SEQ ID NO:438). The mice were then imaged at 6 and 24 hours by fluorescence molecular tomography or fluorescence reflectance using an FMT2500 (VisEn Medical, Bedford, Mass.).

[4] = molecular target: T1, recombinant human MMP-13 (Homo sapiens, UniProt P45452); assay: Enzyme activation of R22, MMP-13; assay type: biochemical; details: 0.5 μM R22, 0.05 μM enzyme, room temperature, 24 hours; FIG. 13
T1 construct: purchased
Method: (§1) Activation by recombinant enzymes was carried out in 250 μL volumes set up in 96 well plates. MMPs were activated prior to the reaction according to manufacturers' protocols. Reactions contained 0.5 μM of R22 and 0.05 μM of activated enzyme in the appropriate activation buffer for each enzyme and incubated at room temperature for 24 hours. The plates were read at 24 hours with excitation/emission wavelength 740/770 nm. Fluorescence readings were performed using a Gemini (Molecular Devices) Fluorescence Plate Reader. Wells in which no enzyme was added were used as controls. Fold activation was obtained by dividing the enzyme-activated read-out (in relative fluorescence units) by its corresponding control well.

[5] = system: trypsin; assay: Enzyme activation of R22, trypsin; assay type: biochemical; details: 0.5 μM R22, 0.05 μM enzyme, room temperature, 24 hours; FIG. 13
Method: as §1

Substance: Pentynoyl-Lys(F5)-Pro-Leu-Gly-Val-Arg-Lys(F5)-PEG20kDa (Pent4ynoyl-K(F5)PLGVRK(F5)-PEG20kDa; reading uncertain; also: printed as Pentynoyl-Lys(F5)-Pro-Leu-Gly-Val-Arg-Lys(F5)-PEG20kDa) [Agent Q91]
fluorescence in carrageenan injected paw versus control paw [1]: significantly more fluorescence is observed in the mouse paw injected with carrageenan compared to the control paw

Substance: [mPEG-20kDa-Suc]-Lys(F6)-Gly-Phe-Leu-Gly-Lys(F6)-[NH2] ({mPEG‑20kDa‑Suc}-K(F6)GFLGK(F6)-NH2; reading uncertain; also: printed as [mPEG-20kDa-Suc]-Lys(F6)-Gly-Phe-Leu-Gly-Lys(F6)-[NH2]) [Agent R51]
activation by various Cathepsin proteases compared with the other imaging agents [2]: greater than that of the other imaging agents
fluorescent signal in ApoE knockout mice versus wild type controls ([3]; fluorescence molecular tomography, FIG. 17): greater fluorescent signal in the ApoE knockout mice over controls
fluorescent signal in ApoE knockout mice versus wild type controls ([3]; tomography and reflectance, FIG. 16): greater fluorescent signal in the ApoE knockout mice over controls

activation by recombinant human MMP-13 (fold activation) [4]: activated primarily
activation by trypsin (fold activation) [5]: activated primarily
Substance: [F6]-Gly-Pro-Leu-Gly-Val-Arg-Lys(F6)-[YPEG 2×20 kDa] (F6-GPLGVRK(F6)-{YPEG 2×20 kDa}; reading uncertain; also: printed as [F6]-Gly-Pro-Leu-Gly-Val-Arg-Lys(F6)-[YPEG 2×20 kDa]) [Agent R22]

Reference: patent US9999687B2, “Fluorescent imaging agents” (VisEn Medical, Inc., priority 2008, dated 2018)
